From patent EP0039809A2, “2-Amino-5-halogen-benzothiazoles, process for preparing them and medicines containing them” (Dr. Karl Thomae GmbH, priority 1980, dated 1981)
Where two headings read alike, the source gives them in different places.

Columns and labels:
[1] = Acute toxicity in the mouse; conditions: in vivo, oral (gavage), Chbb:NMRI(SPF) mice of both sexes, deaths within 14 days, read-out: Akute Toxizität Maus [LD50]
Experimental: 4. Akute Toxizität an der Maus
Die Bestimmung der akuten Toxizität erfolgte an Chbb:NMRI (SPF)-Mäusen beider Geschlechter mit einem mittleren Gewicht von 20 g. Die Prüfsubstanz wurde als Verreibung in 1 %iger Methylzellulose (0,5 ml/10 g Tier) per Schlundsonde verabfolgt. Die Berechnung der LD50 erfolgte (soweit möglich) nach LITCHFIELD u. WILCOXON (J. Pharmacol. exp. Therap. 96, 99 (1949)) aus dem Prozentsatz der Tiere, die nach den verschiedenen Dosen innerhalb von 14 Tagen verstarben.

[2] = tested on: Entzündungsschmerz der Ratte; assay: Analgesic effect against inflammatory pain in the rat (RANDALL-SELITTO, yeast-inflamed paw, pain threshold); format: in vivo; conditions: oral (gavage), male Chbb:THOM rats, dose raising the pain threshold by 50 % versus controls
Experimental: 1) Wirkung gegen den Entzündungsschmerz der Ratte
Die Versuchsanordnung entsprach der von RANDALL-SELITTO (Arch. int. Pharmacodyn. 111, 409 (1957) angegebenen.
Männliche Chbb:THOM-Ratten mit einem Gewicht zwischen 100 und 130 g erhielten eine subplantare Injektion von 0,1 ml einer 5%igen Suspension von Hefezellen in 5,55 %iger Glukoselösun^g in eine Hinterpfote. […] 2 1/4 Stunden nach der Injektion des Phlogisticums erhielten die Tiere verschiedene Dosen der Prüfsubstanz als Verreibung in 1 %iger Methylzellulose (1 ml/100 g Tier) per Schlundsonde beigebracht. Kontrolltiere erhielten entsprechende Volumina des Vehikels. ― 90 bzw. 45 min nach Applikation der Prüfsubstanz (d.h. 3 Stunden nach der subplantaren Injektion der Hefesuspension) wurde bei den Ratten die Schmerzschwelle in g Auflagedruck/Pfote bestimmt.
Aus der nach den verschiedenen Dosen der Prüfsubstanz ge- i messenen Schmerzschwelle wurde nach linearer Regressionsanalyse nach LINDER (Statistische Methoden, 4. Aufl. pp. 148-162, Birkhäuser, Basel 1964) eine ED50 mit den Vertrauensgrenzen nach FIELLER (Quart. J. Pharm. Pharmacol. 17, 117 (1944) als jene Dosis ermittelt, die eine Anhebung der Schmerzschwelle um 50 % gegenüber der der Kontrollen bewirkte.

[3] = tested on: Körpertemperatur der Ratte; assay: Effect on body temperature of the rat (rectal temperature lowering); format: in vivo; conditions: oral (gavage), Chbb:THOM rats, dose lowering body temperature by 1,5°C, read-out: Körpertemperatursenkg. Ratte [ED-1,5°C]
Experimental: 3. Wirkung auf die Körpertemperatur der Ratte
Die Prüfung der temperatursenkenden Wirkung erfolgte durch; die Kontrolle des Verlaufes der rektal gemessenen Körper- temperatur von Chbb:THOM-Ratten mit einem Gewicht zwischen 125-150 g über im Rektum verweilende Thermoelemente. Die Prüfsubstanz wurde als Verreibung in 1 %iger Methylzellulose (1,0 ml/100 g Tier) per Schlundsonde beigebracht. Aus den nach Gabe der verschiedenen Dosen der Prüfsubstanz gewonnenen Werten für die mittlere maximale Temperatursenkung wurde nach linearer Regressionsanalyse nach LINDER (s.o.) eine ED-1,5°C als jene Dosis berechnet, die eine Senkung der Körpertemperatur um 1,5°C bewirkte.

Wärmeschmerz der Maus = assay: Analgesic effect against heat pain in the mouse (hot plate, modified CHEN and BECKMAN); format: in vivo; conditions: oral (gavage), male Chbb:NMRI(SPF) mice, plate 52°C, dose giving 100 % prolongation of reaction time, read-out: Analgesie Maus "hot plate" [ED100]
Experimental: 2) Wirkung gegen den Wärmeschmerz der Maus
Die Prüfung erfolgte mit Hilfe einer Modifikation der Ver- suchsanordnung nach CHEN u. BECKMAN (Science 113, 631 (1951) an männlichen Chbb:NMRI(SPF)-Mäusen mit einem mittleren Gewicht von 20 g. Die "heiße Platte" bestand aus Aluminium und hatte eine Oberflächentemperatur von 52°C. ;
Die Prüfsubstanz wurde als Verreibung in 1 %iger-Methylzellulose (0,1 ml/10 g maus) per Schlundsonde beigebracht. Vor der Behandlung mit Prüfsubstanz wurden die Tiere im Abstand von 30 min. zweimal auf die heiße Platte gesetzt. Es wurde ihre individuelle Reaktionszeit ermittelt. Nach Gabe der Prüfsubstanz wurde in Abständen von 30 min. die Reaktionszeit erneut gemessen.
Aus der mit den verschiedenen Dosen der Prüfsubstanz erzielten gemittelten maximalen Verlängerung der Reaktionszeit wurde nach linearer Regressionsanalyse nach LINDER (s.o.) eine ED100 mit den Vertrauensgrenzen nach FIELLER (s.o.) als die Dosis berechnet, die zu einer 100 %igen Verlängerung der Reaktionszeit führte.

In the case of `COc1cc2sc(N)nc2cc1Cl` [2-Amino-5-chlor-6-methoxy-benzothiazol], the LD50 at 336 h [1] is reported as 3050 mg/kg, the ED50 ([2]; 0.75 h, 45 min after application, read-out: Analgesie Ratte nach RANDALL-SELITTO 45 min nach Appl. [ED50]) is reported as 79 mg/kg and the ED50 ([2]; 1.5 h, 90 min after application, read-out: Analgesie Ratte nach RANDALL-SELITTO 90 min nach Appl. [ED50]) is reported as 80 mg/kg. It also gave an ED (-1.5 degC) [3] of 101 mg/kg and an ED100 (Wärmeschmerz der Maus) of 144 mg/kg.
